Values of other authors, collected in patent US20210299075A1 (priority 2020, published 2021).

Columns and labels:
[1] = Hendley et al.
adenovirus = settings: Poli et al.; the only naked virus tested
[2] = test system: herpes simplex virus, rhabdovirus, and other enveloped viruses; settings: Poli et al.
[3] = frequent application

Molecule	antiviral activity [1]	antiviral activity against adenovirus (adenovirus)	antiviral activity against enveloped viruses [2]	irritation of the skin [3]
benzalkonium chloride [benzalkonium chloride (BAK)]	performed poorly			
O=C(O)CC(O)C(=O)O (stereo not drawn) [malic acid]		not effective	effective	
II [iodine]	all except iodine performed poorly			too irritating to the skin
CC(=O)C(=O)O [pyruvic acid]		not effective	effective	
O=C(O)CCC(=O)O [succinic acid]		not effective	effective	
CCO [ethyl alcohol]	performed poorly			
O=C(O)CC(O)(CC(=O)O)C(=O)O [citric acid]		not effective	effective	
